Data: US20040258695A1, “Transferrin binding peptides and uses thereof” (priority 2003, published 2004)

Tests used:
[1] = system: TbpB N-lobe from H. somnus; assay: bTf C-lobe overlapping peptide library probed with HRP-labelled H. somnus TbpB N-lobe; assay type: binding
Text: (§1) Transferrin binding determinants from two bovine pathogens, M. haemolytica and H. somnus, as well as potential conserved transferrin binding determinants derived therefrom, were identified as described in Example 1 and shown in Table 4 below. Briefly, purified TbpB N-lobes from M. haemolytica and H. somnus were labelled with HRP and used to probe the bTf C-lobe overlapping peptide library. The peptides from the library that bound to the indicated TbpB N-lobe are listed in the column below the species name. The common overlap sequence from adjacent peptides probed with M. haemolytica (*), H. somnus (**) or both ( ) TbpB N-lobes are indicated for the indicated regions.

[2] = system: TbpB N-lobe from M. haemolytica; assay: bTf C-lobe overlapping peptide library probed with HRP-labelled M. haemolytica TbpB N-lobe; assay type: binding
Text: as §1

HRP alone = biological target: T1, HRP alone (UniProt P00433 31-338); assay: SPOT peptide library 2 probed with HRP alone, chemiluminescence
T1 construct: Negative control probe for library 2; also called horseradish peroxidase
T1 sequence: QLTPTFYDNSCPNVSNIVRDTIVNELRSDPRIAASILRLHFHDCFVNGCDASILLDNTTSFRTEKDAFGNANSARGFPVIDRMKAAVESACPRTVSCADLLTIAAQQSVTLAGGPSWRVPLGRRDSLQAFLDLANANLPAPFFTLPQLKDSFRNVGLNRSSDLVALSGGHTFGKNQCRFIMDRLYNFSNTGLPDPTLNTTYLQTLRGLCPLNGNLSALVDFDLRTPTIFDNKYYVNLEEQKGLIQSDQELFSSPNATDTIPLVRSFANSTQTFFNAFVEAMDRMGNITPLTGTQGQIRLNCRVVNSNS

[3] = biological target: T2, human transferrin (hTf), iron loaded (human, UniProt P02787 20-698); assay: SPOT peptide library 2 of TbpB N-lobe probed with HRP-hTf, chemiluminescence
T2 construct: Used as a labelled probe (beta-gal conjugate for library 1, HRP conjugate for library 2 and the solid-phase assay); also called β-gal-hTf; HRP conjugated hTf
T2 sequence (P02787 20-698 limits assumed): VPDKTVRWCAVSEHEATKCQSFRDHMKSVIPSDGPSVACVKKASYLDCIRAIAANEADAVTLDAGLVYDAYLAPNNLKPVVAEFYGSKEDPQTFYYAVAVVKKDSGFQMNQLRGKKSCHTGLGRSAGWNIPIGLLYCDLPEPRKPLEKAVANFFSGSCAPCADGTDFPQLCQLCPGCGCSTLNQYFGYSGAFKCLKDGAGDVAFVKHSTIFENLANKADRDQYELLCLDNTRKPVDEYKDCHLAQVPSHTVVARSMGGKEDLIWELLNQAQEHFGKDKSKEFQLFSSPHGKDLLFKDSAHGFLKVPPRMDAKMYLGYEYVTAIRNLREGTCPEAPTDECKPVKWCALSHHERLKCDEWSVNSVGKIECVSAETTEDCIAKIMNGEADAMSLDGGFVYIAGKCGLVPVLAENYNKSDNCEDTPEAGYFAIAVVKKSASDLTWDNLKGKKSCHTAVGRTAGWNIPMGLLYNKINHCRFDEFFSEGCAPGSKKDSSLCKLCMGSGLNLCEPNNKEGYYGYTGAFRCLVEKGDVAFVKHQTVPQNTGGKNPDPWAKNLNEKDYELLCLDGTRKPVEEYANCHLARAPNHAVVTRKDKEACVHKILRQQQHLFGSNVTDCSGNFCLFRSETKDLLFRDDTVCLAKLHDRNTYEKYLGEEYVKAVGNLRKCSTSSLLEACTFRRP

ANINWNNLKDKKSCH (TbpB N-lobes of Bovine Pathgens) [Peptide 5, bTf C-lobe library peptide]
binding to H. somnus TbpB N-lobe (bound peptide listed; None = did not bind) [1]: ANINWNNLKDKKSCH | binding to M. haemolytica TbpB N-lobe (bound peptide listed; None = did not bind) [2]: ANINWNNLKDKKSCH

AWAKNLKKENFEVLC (TbpB N-lobes of Bovine Pathgens) [Peptide 10, bTf C-lobe library peptide]
binding to H. somnus TbpB N-lobe (bound peptide listed; None = did not bind) [1]: None | binding to M. haemolytica TbpB N-lobe (bound peptide listed; None = did not bind) [2]: AWAKNLKKENFEVLC

CAIGHQERTKCDRWS (TbpB N-lobes of Bovine Pathgens) [Peptide 2, bTf C-lobe library peptide]
binding to H. somnus TbpB N-lobe (bound peptide listed; None = did not bind) [1]: CAIGHQERTKCDRWS | binding to M. haemolytica TbpB N-lobe (bound peptide listed; None = did not bind) [2]: CAIGHQERTKCDRWS

CHLARGPNHAVVSRK (TbpB N-lobes of Bovine Pathgens) [Peptide 12, bTf C-lobe library peptide]
binding to H. somnus TbpB N-lobe (bound peptide listed; None = did not bind) [1]: CHLARGPNHAVVSRK | binding to M. haemolytica TbpB N-lobe (bound peptide listed; None = did not bind) [2]: CHLARGPNHAVVSRK

HAVVSRKDKATCVEK (TbpB N-lobes of Bovine Pathgens) [Peptide 14, bTf C-lobe library peptide]
binding to H. somnus TbpB N-lobe (bound peptide listed; None = did not bind) [1]: HAVVSRKDKATCVEK | binding to M. haemolytica TbpB N-lobe (bound peptide listed; None = did not bind) [2]: HAVVSRKDKATCVEK

HQERTKCDRWSGFSG (TbpB N-lobes of Bovine Pathgens) [Peptide 3, bTf C-lobe library peptide]
binding to H. somnus TbpB N-lobe (bound peptide listed; None = did not bind) [1]: HQERTKCDRWSGFSG | binding to M. haemolytica TbpB N-lobe (bound peptide listed; None = did not bind) [2]: HQERTKCDRWSGFSG

KCLASIAKKTYDSYL (TbpB N-lobes of Bovine Pathgens) [Peptide 17, bTf C-lobe library peptide]
binding to H. somnus TbpB N-lobe (bound peptide listed; None = did not bind) [1]: KCLASIAKKTYDSYL | binding to M. haemolytica TbpB N-lobe (bound peptide listed; None = did not bind) [2]: KCLASIAKKTYDSYL

KTSDANINWNNLKDK (TbpB N-lobes of Bovine Pathgens) [Peptide 4, bTf C-lobe library peptide]
binding to M. haemolytica TbpB N-lobe (bound peptide listed; None = did not bind) [2]: KTSDANINWNNLKDK

MVKWCAIGHQERTKC (TbpB N-lobes of Bovine Pathgens) [Peptide 1, bTf C-lobe library peptide]
binding to H. somnus TbpB N-lobe (bound peptide listed; None = did not bind) [1]: MVKWCAIGHQERTKC | binding to M. haemolytica TbpB N-lobe (bound peptide listed; None = did not bind) [2]: MVKWCAIGHQERTKC

NLKKENFEVLCKDGT (TbpB N-lobes of Bovine Pathgens) [Peptide 11, bTf C-lobe library peptide]
binding to H. somnus TbpB N-lobe (bound peptide listed; None = did not bind) [1]: None | binding to M. haemolytica TbpB N-lobe (bound peptide listed; None = did not bind) [2]: NLKKENFEVLCKDGT

NNNEAWAKNLKKENF (TbpB N-lobes of Bovine Pathgens) [Peptide 9, bTf C-lobe library peptide]
binding to H. somnus TbpB N-lobe (bound peptide listed; None = did not bind) [1]: NNNEAWAKNLKKENF | binding to M. haemolytica TbpB N-lobe (bound peptide listed; None = did not bind) [2]: NNNEAWAKNLKKENF

NSNERYYGYTGAFRC (TbpB N-lobes of Bovine Pathgens) [Peptide 6, bTf C-lobe library peptide]
binding to H. somnus TbpB N-lobe (bound peptide listed; None = did not bind) [1]: NSNERYYGYTGAFRC | binding to M. haemolytica TbpB N-lobe (bound peptide listed; None = did not bind) [2]: None

NTDGNNNEAWALK (NTDGNNNEAWAKNLK; TbpB N-lobes of Bovine Pathgens) [Peptide 8, bTf C-lobe library peptide]
binding to H. somnus TbpB N-lobe (bound peptide listed; None = did not bind) [1]: NTDGNNNEAWALK | binding to M. haemolytica TbpB N-lobe (bound peptide listed; None = did not bind) [2]: None

RAMTNLRQCSTSKLL (TbpB N-lobes of Bovine Pathgens) [Peptide 18, bTf C-lobe library peptide]
binding to H. somnus TbpB N-lobe (bound peptide listed; None = did not bind) [1]: RAMTNLRQCSTSKLL | binding to M. haemolytica TbpB N-lobe (bound peptide listed; None = did not bind) [2]: RAMTNLRQCSTSKLL

RDDTKCLASIAKKTY (TbpB N-lobes of Bovine Pathgens) [Peptide 16, bTf C-lobe library peptide]
binding to H. somnus TbpB N-lobe (bound peptide listed; None = did not bind) [1]: RDDTKCLASIAKKTY | binding to M. haemolytica TbpB N-lobe (bound peptide listed; None = did not bind) [2]: RDDTKCLASIAKKTY

RGPNHAVVSRKDKAT (TbpB N-lobes of Bovine Pathgens) [Peptide 13, bTf C-lobe library peptide]
binding to H. somnus TbpB N-lobe (bound peptide listed; None = did not bind) [1]: RGPNHAVVSRKDKAT | binding to M. haemolytica TbpB N-lobe (bound peptide listed; None = did not bind) [2]: RGPNHAVVSRKDKAT

RYYGYTGAFRCLVEK (TbpB N-lobes of Bovine Pathgens) [Peptide 7, bTf C-lobe library peptide]
binding to H. somnus TbpB N-lobe (bound peptide listed; None = did not bind) [1]: RYYGYTGAFRCLVEK | binding to M. haemolytica TbpB N-lobe (bound peptide listed; None = did not bind) [2]: None

SRKDKATCVEKILNK (TbpB N-lobes of Bovine Pathgens) [Peptide 15, bTf C-lobe library peptide]
binding to H. somnus TbpB N-lobe (bound peptide listed; None = did not bind) [1]: SRKDKATCVEKILNK | binding to M. haemolytica TbpB N-lobe (bound peptide listed; None = did not bind) [2]: None

B1: M. catarrhalis TbpB N-lobe peptide kghwdfmtdvanrrn (peptide)
peptide: KGHWDFMTDVANRRN
notes: SPOT peptide immobilised on cellulose membrane
binding result (HRP alone): no binding | binding result [3]: binds

B2: M. catarrhalis TbpB N-lobe peptide nfkekkltgklfsnl (peptide)
peptide: NFKEKKLTGKLFSNL
notes: as for B1
binding result (HRP alone): no binding | binding result [3]: binds

B3: M. catarrhalis TbpB N-lobe peptide fsevkensqagwyyg (peptide)
peptide: FSEVKENSQAGWYYG
notes: as for B1
binding result (HRP alone): no binding | binding result [3]: binds

B4: M. catarrhalis TbpB N-lobe peptide gklfsnlqdrhkgnv (peptide)
peptide: GKLFSNLQDRHKGNV
notes: as for B1
binding result (HRP alone): no binding | binding result [3]: binds

B5: M. catarrhalis TbpB N-lobe peptide ydidanihgnrfrgs (peptide)
peptide: YDIDANIHGNRFRGS
notes: as for B1
binding result (HRP alone): no binding | binding result [3]: binds

B6: M. catarrhalis TbpB N-lobe peptide amgygmalskinlhn (peptide)
peptide: AMGYGMALSKINLHN
notes: as for B1
binding result (HRP alone): no binding | binding result [3]: binds

B7: M. catarrhalis TbpB N-lobe peptide wnlgpvggvfyngtt (peptide)
peptide: WNLGPVGGVFYNGTT
notes: as for B1
binding result (HRP alone): no binding | binding result [3]: binds

B8: M. catarrhalis TbpB N-lobe peptide avkykghwdfmtdva (peptide)
peptide: AVKYKGHWDFMTDVA
notes: as for B1
binding result (HRP alone): no binding | binding result [3]: binds

B9: M. catarrhalis TbpB N-lobe peptide kterydidanihgnr (peptide)
peptide: KTERYDIDANIHGNR
notes: as for B1
binding result (HRP alone): no binding | binding result [3]: binds

B10: M. catarrhalis TbpB N-lobe peptide kkltgklfsnlqdrh (peptide)
peptide: KKLTGKLFSNLQDRH
notes: as for B1
binding result (HRP alone): no binding | binding result [3]: binds
